Data as given in patent US6660276B1, “Peptides recognized by melanoma-specific cytotoxic lymphocytes, and uses therefor” (The University of Virginia Patent Foundation, priority 1994, dated 2003).
Where no end group is shown, it is not given here.

What was measured:
Assay type in all cases: cell-based, human
[1] = tested on: melanoma specific CTL VMM5; test: Reconstitution of melanoma-specific CTL epitope on peptide-pulsed 51Cr-labelled T2 cells, chromium release assay, VMM5 CTL; settings: for effect on epitope reconstitution: concentrations up to 10 nM
Method: (§1) Cell-mediated killing was determined in vitro using a 4-h chromium release assay. 51Cr-labeled target cells were plated at 2×10^3 cells/well in triplicate on 96-well V-bottom plates (Costar, Cambridge, Mass.) with varying numbers of effector cells in a final volume of 250 microl. Wells containing either culture medium and target cells only or 1 M HCl and target cells served as background 51Cr release controls and total release controls, respectively. The plates were centrifuged at 100×g for 3 min and incubated at 37° C. in 5% CO2 for 4 h. The plates were again centrifuged, and 0.20 ml of medium from each well was removed for counting in a gamma counter. The cytotoxic index was calculated as: [formula] […] Effector cells were added in 100 microl assay medium to give an E:T ratio of 10:1, and were incubated at 37° C. The remainder of the assay is performed as in standard chromium release assays described above. Wells containing peptide and target cells but no CTL were used as controls to rule out toxicity of the peptides themselves. […] HLA-A2.1 molecules were immunoaffinity purified from detergent lysates of the human melanoma cell line DM6. The associated peptides were released by acid extraction, separated from HLA-A2.1 and antibody by filtration, and fractionated by multiple stages of HPLC. […] L. Slingluff Jr., et al, J. Immunol. (1993) […], 2955, by using a gradient of acetonitrile/0.085% trifluoroacetic acid (TFA) in 0.1% TFA with acetonitrile increasing from 0 to 9% (0-5 min), 9 to 36%(5-55min), 36 to 60% (55-62min) (v/v), collecting one-minute fractions. In FIG. 8B Fractions 2 and 3 from the separation shown in panel A were pooled and rechromatographed with a 55 minute gradient of 0 to 30% acetonitrile/0.1% heptafluorobutyric acid (HFBA) in 0.1% HFBA, collecting one-minute fractions. For both panels, peptide fractions were incubated for 2-3 h with 2×10^3 51Cr-labelled T2 cells in 150 ll assay media per well in 96-well plates. […]

[2] = tested on: HLA-A2.1 restricted melanoma specific CTL lines (VMM5, VMM6, DM169-13, DM204-13, LD1); test: Chromium release assay, peptide-preincubated T2 cells, panel of HLA-A2.1 restricted melanoma specific CTL lines from different patients; settings: for activity in reconstituting recognition by CTL lines from 3 additional patients: at equal or higher concentrations than 946 (0.1-1 nM)
Method: Cell-mediated killing was determined in vitro using a 4-h chromium release assay. 51Cr-labeled target cells were plated at 2×10^3 cells/well in triplicate on 96-well V-bottom plates (Costar, Cambridge, Mass.) with varying numbers of effector cells in a final volume of 250 microl. Wells containing either culture medium and target cells only or 1 M HCl and target cells served as background 51Cr release controls and total release controls, respectively. The plates were centrifuged at 100×g for 3 min and incubated at 37° C. in 5% CO2 for 4 h. The plates were again centrifuged, and 0.20 ml of medium from each well was removed for counting in a gamma counter. The cytotoxic index was calculated as: [formula] […] Effector cells were added in 100 microl assay medium to give an E:T ratio of 10:1, and were incubated at 37° C. The remainder of the assay is performed as in standard chromium release assays described above. Wells containing peptide and target cells but no CTL were used as controls to rule out toxicity of the peptides themselves. […] To determine whether peptide 946 was a generally relevant epitope for HLA-A2.1 restricted melanoma specific CTL, lines from 3 additional patients were tested. CTL lines VMM5 and VMM6 were generated by stimulation with autologous tumor. VMM5 CTL were maintained on allogeneic A2.1^+ melanoma DM6 after specificity was obtained, C. L. Slingluff Jr. et al., J. Immunol. 150, 2955 (1993). DM169-13 and DM204-13 CTL were generated by stimulation with allogeneic A2.1^+ melanoma DM13, N. J. Crowley et al., J. Immunol. 146, 1692 (1991), then maintained with DM6. LD1 CTL were stimulated on a rotating schedule of stimulating logeneic A2.1^+ melanomas DM6, DM13, and DM93. DM93 is an HLA-A2.1^+ melanoma used as a positive control. […] T2 cells were preincubated with the peptides whose (M+H)^+ values are indicated in the legend, FIG. 12. […] All other peptides were used at a concentration of 10 nM except 250 nM for DM169 and 0.1 nM for LD1. Asterisks (*) mark peptides not evaluated. The sequences of the peptides 864 (Seq. ID No. 88), 946 (Seq. ID No. 39), 1046 (Seq. ID No. 89) are described in the text. Peptide 1030 has the sequence […] (SEQ ID NO:90), (related to peptide from tyrosinase. molecule). […] An additional peptide Try […] (SEQ ID NO 96), which originates from tyrosinase and had been identified by Boon and colleagues as an HLA-A2.1 restricted melanoma specific T cell epitope, was also evaluated. None of 4 CTL lines recognized cells incubated with this peptide.

[3] = tested on: melanoma specific CTL DM204-13; test: Reconstitution of melanoma-specific CTL epitope on peptide-pulsed 51Cr-labelled T2 cells, chromium release assay, DM204-13 CTL; settings: for effect on epitope reconstitution: concentrations up to 10 nM
Method: as §1

[4] = T2 cells, synthetic peptide with equimolar Leu/Ile at X, read-out: half-maximal reconstitution of the epitope

Substance	effect on epitope reconstitution [1]	activity in reconstituting recognition by CTL lines from 3 additional patients [2]	effect on epitope reconstitution [3]	further results
Ala Xaa Tyr Asp Ala Thr Tyr Glu Thr [Peptide 1046]	no effect	neither 864 nor 1046 had any detectable activity	no effect	
SMAPGNTSV [Peptide 864]	no effect	neither 864 nor 1046 had any detectable activity	no effect	
Try Met Asn Gly Thr Met Ser Gln Val (YMNGTMSQV) [SEQ ID NO 96, originates from tyrosinase, reference compound]				CTL lines that recognized cells incubated with the peptide ([2]; 4 CTL lines tested): None of 4
Tyr Xaa Glu Pro Gly Pro Val Thr Ala [Peptide 946]				EC50 [1, 4]: 1 to 10 pM; EC50 ([2]; dose response curves for two of the 3 additional CTL lines, read-out: half-maximal lysis): 1 to 10 pM; patients / CTL lines whose T-cells recognized the HLA-A2.1-associated peptide ([2]; five melanoma-specific CTL lines from five patients): 5 out of 5 and all five lines recognize; reconstitution of recognition by CTL lines from 3 additional patients ([2]; peptide at 0.1-1 nM, T2 cells, FIG. 12): reconstituted recognition; EC50 [3, 4]: 1 to 10 pM
